Patent publication US12383527B2, “Methods for treating triple negative breast cancer using salvianolic acid B” (HOWARD UNIVERSITY, priority 2018, dated 2025)

Legend:
survivin [1] = test: Immunohistochemical staining of survivin in MDA tumor xenografts; type: in vivo, athymic nude mice; conditions: doxorubicin 4 mg/kg every four weeks; versus untreated group
Method: (§1) Human tumor xenografts in athymic nude mice. […] The animal protocol was approved by the Howard University Animal Care and Use Committee. Four-week-old female athymic nude mice (Nu/Nu) were obtained from Harlan Sprague Dawley (Indianapolis, IN). All mice were provided the Harlan Teklad #2018 Global 18% protein rodent diet and water ad libitum. Mice were housed in temperature-controlled rooms (74±2° F.) with a 12-hour alternating light-dark cycle. MDA cells (3×10^6/50 μL/spot) were subcutaneously injected into the both sides of lower back of mice using a 27-gauge needle. […]
(§2) Immunohistochemical staining was performed as described previously (Hao Y, et al., “Enforced expression of miR-101 inhibits prostate cancer cell growth by modulating the COX-2 pathway in vivo,” Cancer Prev Res (Phila), 2011; 4: 1073-1083). […] For the quantification, ten high-magnification (40×) fields were randomly selected from each slide of tumors and the positive cells were counted. The protein expression was expressed as the average number of positive cells per high magnification field.

MDA-MB-231 cells = test: Luciferase assay (bioluminescent cell viability); type: cell-based, human; conditions: MDA cells, 24 hours
Method: (§3) Cell lines and culture. MCF-7 and MDA human breast cancer cell lines stably transfected with firefly luciferase gene were purchased from Caliper Life Sciences (Hanover, MD). MCF-7 cells were cultured in DMEM medium (Invitrogen, Carlsbad, CA) and MDA cells were grown in DMEM/F-12 (1:1) medium (Invitrogen). Both media were supplemented with 10% fetal bovine serum (Invitrogen) and antibiotic-antimycotic mixture (100 IU/ml penicillin and 100 μg/ml streptomycin; Cellgro). The cells were maintained at 37° C. in 5% CO2. All experiments were performed when the cells were in the logarithmic phase of growth. Luciferase assay. The MDA cell line and the hormone receptor-positive MCF-7 cell line were utilized to test the effectiveness of Sal-B and doxorubicin on cancer cell viability. Both cell lines had been stably transfected and expressed the firefly luciferase gene. The bioluminescent signal intensity reflects the cell metabolic activity, being highly correlated with the cell viability. Cell viability was evaluated using the sensitive bioluminescent optical imaging. The cells (10,000 per well) were seeded in flat-bottomed 96-well plates in the above-identified medium with 10% fetal bovine serum and allowed to grow overnight. The old medium was then replaced with fresh medium containing different concentrations of Sal-B (50, 100, 150, and 200 μM) or doxorubicin (0.1, 0.2, 0.5, and 1 μM). The cells were further cultured for 24 hours and D-luciferin was added to each well and mixed gently (final concentration of 150 μ/ml). The signal was measured with the Xenogen IVIS 200 imaging system (Caliper Life Sciences, Hopkinton, MA, USA). The system was equipped with a highly sensitive, cooled charge-coupled device (CCD) camera and a light-tight specimen box. Imaging and quantification of signals was controlled by the acquisition and analysis software Living Image 3.0. The bioluminescent signal from the cells in each well was expressed as total flux (photons per second (p/s)). At least five replicates were performed in each experiment, and each experiment was repeated at least three times. The representative data are presented.

MCF-7 cells = test: Luciferase assay (bioluminescent cell viability); type: cell-based, human; conditions: 24 hours
Method: as §3

Bcl-xL [2] = test: Western blot of Bcl-xL expression in MDA and MCF-7 cells; type: cell-based, human; conditions: doxorubicin 0.1 μM and 1 μM, 24 hours
Method: (§4) The immunohistochemical results were consistent with those from Western blotting (FIG. 7, panel A). Western blot analysis was used to determine the expression of apoptosis-related proteins Bcl-XL, survivin, caspase-3 and caspase-8 (FIG. 7, panel A). β-actin was used as an internal control for Western blotting. The MCD-7 and MDA cells were treated with Sal-B (50 μM and 100 μM) and doxorubicin (0.1 μM and 1 μM), respectively, for 24 hours. Proteins were extracted from the cells with RIPA lysis buffer (Santa Cruz Biotechnology, Santa Cruz, CA) and the protein concentrations were quantified with Bio-Rad protein quantification kit. Whole-cell proteins were separated on 8% SDS-polyacrylamide gel, transferred to the polyvinylidene difluoride membrane (Bio-Rad), and then probed with the indicated primary antibodies overnight at 4° C. Washed blots were then incubated with horseradish peroxidase-conjugated anti-rabbit, anti-mouse, or anti-goat antibody (Santa Cruz Biotechnology), respectively, for one hour at room temperature. Blots were developed and visualized with ECL detection system (Bio-Rad).

[3] = tested on: proliferating cell nuclear antigen (PCNA); test: Immunohistochemical staining of PCNA in MDA tumor xenografts; type: in vivo, athymic nude mice; conditions: doxorubicin 4 mg/kg every four weeks; versus untreated; P<0.05
Method: as §1, §2

MDA tumor xenografts [4] = test: Human tumor xenografts in athymic nude mice, tumor weight; type: in vivo; conditions: doxorubicin 4 mg/kg every four weeks, intraperitoneal; day 37; mean±SD; untreated control 0.81±0.12 g
Method: Human tumor xenografts in athymic nude mice. […] The animal protocol was approved by the Howard University Animal Care and Use Committee. Four-week-old female athymic nude mice (Nu/Nu) were obtained from Harlan Sprague Dawley (Indianapolis, IN). All mice were provided the Harlan Teklad #2018 Global 18% protein rodent diet and water ad libitum. Mice were housed in temperature-controlled rooms (74±2° F.) with a 12-hour alternating light-dark cycle. MDA cells (3×10^6/50 μL/spot) were subcutaneously injected into the both sides of lower back of mice using a 27-gauge needle. On day 10 after cell implantation, the mice with tumors (˜5 mm in diameter) were randomly divided into Sal-B treated, doxorubicin treated, and untreated groups (five mice per group), and were administrated Sal-B (80 mg/kg, three times per week), doxorubicin (4 mg/kg, every four weeks) and 0.9% saline (50 μl, three times per week), respectively, by intraperitoneal injection for a total of 37 days. […] All mice were sacrificed on day 37.

ceramides = test: Immunohistochemistry of ceramides in MDA tumor xenografts; type: in vivo, athymic nude mice; conditions: doxorubicin 4 mg/kg every four weeks; untreated control 2.3±0.7; P<0.05
Method: as §1
Immunohistochemical staining was performed as described previously (Hao Y, et al., “Enforced expression of miR-101 inhibits prostate cancer cell growth by modulating the COX-2 pathway in vivo,” Cancer Prev Res (Phila), 2011; 4: 1073-1083). […] For the quantification, ten high-magnification (40×) fields were randomly selected from each slide of tumors and the positive cells were counted. The protein expression was expressed as the average number of positive cells per high magnification field. […]

MDA tumor xenografts [5] = test: TUNEL assay of apoptotic cells in MDA tumor xenografts; type: in vivo, athymic nude mice; conditions: doxorubicin 4 mg/kg every four weeks; untreated tumors 3.1±1.8; P<0.05
Method: as §1
Apoptotic cells in MDA tumor xenografts were also analyzed by a terminal deoxynucleotidyl transferase-mediated dUTP nick end labeling (TUNEL) assay using the TdT-FragEL DNA Fragmentation Detection Kit (EMD Millipore, Burlington, MA) as previously described (Li H, et al., “Cellular uptake and anticancer activity of salvianolic acid B phospholipid complex loaded nanoparticles in head and neck cancer and precancer cells,” Colloids Surf B Biointerfaces. 2016; 147: 65-72). […]

ER-α = test: Western blot of ER-α expression in MCF-7 cells; type: cell-based, human; conditions: doxorubicin at the high dose (1 μM)
Bcl-xL [6] = test: Immunohistochemical staining of Bcl-xL in MDA tumor xenografts; type: in vivo, athymic nude mice; conditions: doxorubicin 4 mg/kg every four weeks; versus untreated tumors; P<0.05
Method: as §1, §2

cyclin B1 = test: Western blot of cyclin B1 expression in MDA and MCF-7 cells; type: cell-based, human; conditions: doxorubicin 1 μM, 24 hours
Method: (§5) The expression of two cell cycle-related proteins—cyclin A and cyclin B1—was checked by Western blot. The expression of cyclin A and cyclin B1 was normalized by the expression of the internal control β-actin (lower panel). The cells were treated with 50 μM and 100 μM Sal-B, respectively, for 24 hours. Doxorubicin (0.1 μM and 1 μM) was used as a control. […] The results may be explained by that the cell cycle progression is controlled by a large set of molecules, although cyclin B1 is a key component in the control of cell cycle progression from G2 to M phase.
as §4

cyclin A = test: Western blot of cyclin A expression in MDA and MCF-7 cells; type: cell-based, human; conditions: doxorubicin 1 μM, 24 hours
Method: as §5
as §4, with “Washed blots were then incubated with horseradish peroxidase-conjugated anti-rabbit, anti-mouse, or anti-goat antibody (Santa Cruz Biotechnology), respectively, for one hour at room temperature. Blots were developed and visualized with ECL detection system (Bio-Rad).” left out

survivin [7] = test: Western blot of survivin expression in MDA and MCF-7 cells; type: cell-based, human; conditions: doxorubicin 0.1 μM and 1 μM, 24 hours
Method: as §4

COc1cccc2c1C(=O)c1c(O)c3c(c(O)c1C2=O)C[C@@](O)(C(=O)CO)C[C@@H]3O[C@H]1C[C@H](N)[C@H](O)[C@H](C)O1 [doxorubicin, reference compound]
survivin level in tumors (survivin [1]): decreasing
cytotoxicity at 0.5 µM (MDA-MB-231 cells; Homo sapiens, MDA-MB-231, doxorubicin 0.5 μM, read-out: reduction of cell viability): 25%
further reduction of cell viability versus 0.5 μM (MDA-MB-231 cells; doxorubicin 1 μM): No further reduction
cytotoxicity at 0.5 µM (MCF-7 cells; Homo sapiens, MCF7, MCF-7 cells, doxorubicin 0.5 μM, read-out: reduction of cell viability): ~67%
further reduction of cell viability versus 0.5 μM (MCF-7 cells; MCF-7 cells, doxorubicin 1 μM): No further reduction
effect on cell viability, MCF-7 cells relative to MDA cells (MCF-7 cells; doxorubicin 1 μM): approximately two-fold
Bcl-xL protein expression (Bcl-xL [2]; MCF-7 cells): downregulated
Bcl-xL protein expression (Bcl-xL [2]; MDA cells): downregulated
PCNA levels in tumor xenografts [3]: higher in untreated MDA tumor xenografts
average tumor weight (MDA tumor xenografts [4]): 0.34 ± 0.09 g
ceramide levels in tumor xenografts (ceramide positive cells counted) (ceramides): 6.2±1.3
number of apoptotic cells (TUNEL) (MDA tumor xenografts [5]): 9.0±2.1
ER-α protein level (normalized to β-actin) (ER-α): decreased
expression of Bcl-xL in tumors (Bcl-xL [6]): decreased expression
cyclin B1 expression (normalized to β-actin) (cyclin B1; MCF-7 cells): reduction
cyclin B1 expression (normalized to β-actin) (cyclin B1; MDA cells): reduction
cyclin A expression (normalized to β-actin) (cyclin A; MCF-7 cells): reduction
cyclin A expression (normalized to β-actin) (cyclin A; MDA cells): reduction
survivin protein expression (survivin [7]; MCF-7 cells): downregulated
survivin protein expression (survivin [7]; MDA cells): downregulated
